Patent US20040106793A1, “Oxazoles for treating cytokine mediated diseases” (SmithKline Beecham Corporation, priority 1993, published 2004)

System: IL-1 produced by human monocytes
Experiment: Interleukin 1 (IL-1) production by LPS-stimulated human monocytes
Assay type: cell-based
Details: human peripheral blood monocytes, compound 1 h before lipopolysaccharide (50 ng/ml), 24 h at 37° C.; IL-1 in supernatant by bioassay (EL-4) or ELISA
Description: Human peripheral blood monocytes were isolated and purified from either fresh blood preparations from volunteer donors, or from blood bank buffy coats, according to the procedure of Colotta et al, J Immunol, 132, 936 (1984). These monocytes (1×10^6) were plated in 24-well plates at a concentration of 1-2 million/ml per well. The cells were allowed to adhere for 2 hours, after which time non-adherent cells were removed by gentle washing. Test compounds were then added to the cells for 1 h before the addition of lipopolysaccharide (50 ng/ml), and the cultures were incubated at 37° C. for an additional 24 h. At the end of this period, culture supernatants were removed and clarified of cells and all debris. Culture supernatants were then immediately assayed for IL-1 biological activity, either by the method of Simon et al., J. Immunol. Methods, 84, 85, (1985) (based on ability of IL-1 to stimulate a Interleukin 2 producing cell line (EL-4) to secrete IL-2, in concert with A23187 ionophore) or the method of Lee et al., J. ImmunoTherapy, 6 (1), 1-12 (1990) (ELISA assay).

Row | SMILES | inhibition of in vitro IL-1 produced by human monocytes
1 | COc1cccc(-c2oc(C)nc2-c2ccncc2)c1 [Example 1, 5-(3-Methoxyphenyl)-2-methyl-4-(4-pyridyl)oxazole] | inhibitors
2 | Cc1nc(-c2ccncc2)c(-c2ccc(F)cc2)o1 [Example 2, 5-(4-Fluorophenyl)-2-methyl-4-(4-pyridyl)oxazole] | inhibitors
3 | Fc1ccc(-c2ncoc2-c2ccncc2)cc1 [Example 7, 4-(4-Fluorophenyl)-5-(4-pyridyl)oxazole] | inhibitors
